Test results published in patent EP4603105A1, “PHARMACEUTICAL COMPOSITION CONTAINING CYCLIC COMPOUND HAVING SELECTIVE KRAS INHIBITORY EFFECT AGAINST HRAS AND NRAS” (CHUGAI SEIYAKU KABUSHIKI KAISHA, priority 2022, dated 2024).

Tests used:
HRAS wild-type protein = HRAS wild-type protein (Homo sapiens, UniProt P01112); test: Binding to HRAS by surface plasmon resonance (SPR), KD and KD ratio to KRAS; conditions: ratio of the KD value with respect to HRAS wild-type protein to the KD value with respect to KRAS
Sequence of HRAS wild-type protein (P01112 whole entry): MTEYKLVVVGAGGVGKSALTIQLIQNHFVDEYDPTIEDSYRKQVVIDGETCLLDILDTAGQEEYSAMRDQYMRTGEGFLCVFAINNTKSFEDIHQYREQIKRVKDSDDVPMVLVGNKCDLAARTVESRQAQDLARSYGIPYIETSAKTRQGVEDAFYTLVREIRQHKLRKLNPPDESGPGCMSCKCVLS
Outline: (§1)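 Affinity is measured by surface plasmon resonance at 30°C against captured, GDP-loaded RAS carrying a biotinylated Avi tag. Compounds are titrated by single-cycle kinetics, and KD comes from a 1:1 fit.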

[1] = system: human lung cancer strain NCI-H441; assay type: cell-based
Outline: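 Readout: […] after the ATP-based reagent. Compound: serial dilutions in dimethyl sulfoxide.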

[2] = target: GDP-bound NRAS wild-type protein (Homo sapiens, UniProt P01111); test: Binding to NRAS by surface plasmon resonance (SPR), KD and KD ratio to KRAS; conditions: ratio of the KD value with respect to GDP-bound NRAS wild-type protein to the KD value with respect to KRAS
Sequence of GDP-bound NRAS wild-type protein (P01111 whole entry): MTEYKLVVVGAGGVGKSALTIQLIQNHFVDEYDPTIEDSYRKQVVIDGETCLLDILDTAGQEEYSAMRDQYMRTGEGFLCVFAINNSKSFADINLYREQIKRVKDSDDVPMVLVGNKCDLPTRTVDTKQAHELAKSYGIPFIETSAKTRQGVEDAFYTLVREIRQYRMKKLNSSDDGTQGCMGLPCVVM
Outline: as §1

Compound	HRAS /KRAS (HRAS wild-type protein)	IC50 [1]	NRAS /KRAS [2]
CC[C@H](C)[C@@H]1NC(=O)[C@H](CC(C)C)N(C)C(=O)C[C@@H](C(=O)N(C)C)N(C)C(=O)[C@H](C2CCCC2)N(C)C(=O)C2(CCCC2)NC(=O)[C@@H]2CC(F)(F)CN2C(=O)[C@H](CCc2cc(F)c(C(F)(F)F)c(F)c2)NC(=O)CN(C)C(=O)[C@H](Cc2ccc(C(F)(F)F)cc2)N2CCCCC[C@@H](C2=O)N(C)C(=O)CN(C)C1=O [PP0465]	B (a compound having 3 or more and less than 10 is denoted as B)	18 nM	B (a compound having 3 or more and less than 10 is denoted as B)
CC[C@H](C)[C@@H]1NC(=O)[C@H](CC(C)C)N(C)C(=O)C[C@@H](C(=O)N(C)C)N(C)C(=O)[C@H](C2CCCC2)N(C)C(=O)C2(CCC2)NC(=O)[C@@H]2CC(F)(F)CN2C(=O)[C@H](CCc2cc(F)c(C(F)(F)F)c(F)c2)NC(=O)CN(C)C(=O)[C@H](Cc2ccc(C(F)(F)F)cc2)N2CCCCC[C@@H](C2=O)N(C)C(=O)CN(C)C1=O [PP0466]	B (a compound having 3 or more and less than 10 is denoted as B)	22.6 nM	B (a compound having 3 or more and less than 10 is denoted as B)
CCO[C@@H]1C[C@H]2C(=O)NC3(CCC3)C(=O)N(C)[C@@H](C3CCCC3)C(=O)N(C)[C@H](C(=O)N3CCOCC3)CC(=O)N(C)[C@@H](CC(C)C)C(=O)N[C@@H]([C@@H](C)CC)C(=O)N(C)CC(=O)N(C)[C@H]3CCCCCN(C3=O)[C@@H](Cc3ccc(C(F)(F)F)cc3)C(=O)N(C)CC(=O)N[C@@H](CCc3cc(F)c(C(F)(F)F)c(F)c3)C(=O)N2C1 [PP0467]	B (a compound having 3 or more and less than 10 is denoted as B)	33.8 nM	B (a compound having 3 or more and less than 10 is denoted as B)
CCO[C@@H]1C[C@H]2C(=O)NC3(CCCC3)C(=O)N(C)[C@@H](C3CCCC3)C(=O)N(C)[C@H](C(=O)N(C)C)CC(=O)N(C)[C@@H](CC(C)C)C(=O)N[C@@H]([C@@H](C)CC)C(=O)N(C)CC(=O)N(C)[C@H]3CCCCCN(C3=O)[C@@H](Cc3ccc(C(F)(F)F)cc3)C(=O)N(C)CC(=O)N[C@@H](CCc3cc(F)c(C(F)(F)F)c(F)c3)C(=O)N2C1 [PP0468]	B (a compound having 3 or more and less than 10 is denoted as B)	37.2 nM	B (a compound having 3 or more and less than 10 is denoted as B)
CC[C@H](C)[C@@H]1NC(=O)[C@H](C)N(C)C(=O)C[C@@H](C(=O)N(C)C)N(C)C(=O)[C@H](C2CCCC2)N(C)C(=O)C2(CCC2)NC(=O)[C@@H]2CCCN2C(=O)[C@H](CCc2cc(F)c(C(F)(F)F)c(F)c2)NC(=O)CN(C)C(=O)[C@H](Cc2ccc(C(F)(F)F)cc2)N2CCCCC[C@@H](C2=O)N(C)C(=O)CN(C)C1=O [PP0470]	B (a compound having 3 or more and less than 10 is denoted as B)	51.9 nM	B (a compound having 3 or more and less than 10 is denoted as B)
CC[C@H](C)[C@@H]1NC(=O)[C@H](C)N(C)C(=O)C[C@@H](C(=O)N2CCOCC2)N(C)C(=O)[C@H](C2CCCC2)N(C)C(=O)C2(CCC2)NC(=O)[C@@H]2CC(F)(F)CN2C(=O)[C@H](CCc2cc(F)c(C(F)(F)F)c(F)c2)NC(=O)CN(C)C(=O)[C@H](Cc2ccc(C(F)(F)F)cc2)N2CCCCC[C@@H](C2=O)N(C)C(=O)CN(C)C1=O [PP0471]	B (a compound having 3 or more and less than 10 is denoted as B)	37.7 nM	B (a compound having 3 or more and less than 10 is denoted as B)
CC[C@H](C)[C@@H]1NC(=O)[C@H](C)N(C)C(=O)C[C@@H](C(=O)N(C)C)N(C)C(=O)[C@H](C2CCCC2)N(C)C(=O)C2(CCCC2)NC(=O)[C@@H]2CC(F)(F)CN2C(=O)[C@H](CCc2cc(F)c(C(F)(F)F)c(F)c2)NC(=O)CN(C)C(=O)[C@H](Cc2ccc(C(F)(F)F)cc2)N2CCCCC[C@@H](C2=O)N(C)C(=O)CN(C)C1=O [PP0472]	B (a compound having 3 or more and less than 10 is denoted as B)	24.4 nM	B (a compound having 3 or more and less than 10 is denoted as B)
CC[C@H](C)[C@@H]1NC(=O)[C@H](C)N(C)C(=O)C[C@@H](C(=O)N(C)C)N(C)C(=O)[C@H](C2CCCC2)N(C)C(=O)C2(CCC2)NC(=O)[C@@H]2CC(F)(F)CN2C(=O)[C@H](CCc2cc(F)c(C(F)(F)F)c(F)c2)NC(=O)CN(C)C(=O)[C@H](Cc2ccc(C(F)(F)F)cc2)N2CCCCC[C@@H](C2=O)N(C)C(=O)CN(C)C1=O [PP0473]	C (A compound having a KD ratio of 0.1 or more and less than 3 is denoted as C)	14.8 nM	C (A compound having a KD ratio of 0.1 or more and less than 3 is denoted as C)
CCO[C@@H]1C[C@H]2C(=O)NC3(CCC3)C(=O)N(C)[C@@H](C3CCCC3)C(=O)N(C)[C@H](C(=O)N3CCOCC3)CC(=O)N(C)[C@@H](C)C(=O)N[C@@H]([C@@H](C)CC)C(=O)N(C)CC(=O)N(C)[C@H]3CCCCCN(C3=O)[C@@H](Cc3ccc(C(F)(F)F)cc3)C(=O)N(C)CC(=O)N[C@@H](CCc3cc(F)c(C(F)(F)F)c(F)c3)C(=O)N2C1 [PP0474]	B (a compound having 3 or more and less than 10 is denoted as B)	19.9 nM	B (a compound having 3 or more and less than 10 is denoted as B)
CCO[C@@H]1C[C@H]2C(=O)NC3(CCCC3)C(=O)N(C)[C@@H](C3CCCC3)C(=O)N(C)[C@H](C(=O)N(C)C)CC(=O)N(C)[C@@H](C)C(=O)N[C@@H]([C@@H](C)CC)C(=O)N(C)CC(=O)N(C)[C@H]3CCCCCN(C3=O)[C@@H](Cc3ccc(C(F)(F)F)cc3)C(=O)N(C)CC(=O)N[C@@H](CCc3cc(F)c(C(F)(F)F)c(F)c3)C(=O)N2C1 [PP0475]	B (a compound having 3 or more and less than 10 is denoted as B)	18.7 nM	B (a compound having 3 or more and less than 10 is denoted as B)
CCO[C@@H]1C[C@H]2C(=O)NC3(CCC3)C(=O)N(C)[C@@H](C3CCCC3)C(=O)N(C)[C@H](C(=O)N(C)C)CC(=O)N(C)[C@@H](C)C(=O)N[C@@H]([C@@H](C)CC)C(=O)N(C)CC(=O)N(C)[C@H]3CCCCCN(C3=O)[C@@H](Cc3ccc(C(F)(F)F)cc3)C(=O)N(C)CC(=O)N[C@@H](CCc3cc(F)c(C(F)(F)F)c(F)c3)C(=O)N2C1 [PP0476]	B (a compound having 3 or more and less than 10 is denoted as B)	4.9 nM	B (a compound having 3 or more and less than 10 is denoted as B)
CC[C@H](C)[C@@H]1NC(=O)[C@H](CC(C)C)N(C)C(=O)C[C@@H](C(=O)N2CCOCC2)N(CC)C(=O)[C@H](C2CCCC2)N(C)C(=O)C2(CCCC2)NC(=O)[C@@H]2CCCN2C(=O)[C@H](CCc2cc(F)c(C(F)(F)F)c(F)c2)NC(=O)CN(C)C(=O)[C@H](Cc2ccc(C(F)(F)F)cc2)N2CCCCC[C@@H](C2=O)N(C)C(=O)CN(C)C1=O [PP0477]	A (a compound having 10 or more and less than 20 is denoted as A)	139 nM	A (a compound having 10 or more and less than 20 is denoted as A)
CC[C@H](C)[C@@H]1NC(=O)[C@H](CC(C)C)N(C)C(=O)C[C@@H](C(=O)N2CCOCC2)NC(=O)[C@H](C2CCCC2)N(C)C(=O)C2(CCCC2)NC(=O)[C@@H]2CCCN2C(=O)[C@H](CCc2cc(F)c(C(F)(F)F)c(F)c2)NC(=O)CN(C)C(=O)[C@H](Cc2ccc(C(F)(F)F)cc2)N2CCCCC[C@@H](C2=O)N(C)C(=O)CN(C)C1=O [PP0479]	B (a compound having 3 or more and less than 10 is denoted as B)	2440 nM	B (a compound having 3 or more and less than 10 is denoted as B)
CC[C@H](C)[C@@H]1NC(=O)[C@H](CC(C)C)N(C)C(=O)C[C@@H](C(=O)N2CCOCC2)N(C)C(=O)[C@H](C2CCCC2)N(C)C(=O)C2(CCCC2)NC(=O)[C@@H]2CCCN2C(=O)[C@H](CCc2cc(F)c(C(F)(F)F)c(F)c2)NC(=O)CN(C)C(=O)[C@H](Cc2ccc(C(F)(F)F)cc2)N2CCCCC[C@@H](C2=O)N(C)C(=O)[C@H](C)NC1=O [PP0481]	B (a compound having 3 or more and less than 10 is denoted as B)	> 1000 nM	B (a compound having 3 or more and less than 10 is denoted as B)
CC[C@H](C)[C@@H]1NC(=O)[C@H](CC(C)C)N(C)C(=O)C[C@@H](C(=O)N2CCOCC2)N(C)C(=O)[C@H](C2CCCC2)N(C)C(=O)C2(CCCC2)NC(=O)[C@@H]2CCCN2C(=O)[C@H](CCc2cc(F)c(C(F)(F)F)c(F)c2)NC(=O)CN(C)C(=O)[C@H](Cc2ccc(C(F)(F)F)cc2)N2CCCCC[C@@H](C2=O)N(C)C(=O)CN(CC)C1=O [PP0483]	B (a compound having 3 or more and less than 10 is denoted as B)	525 nM	B (a compound having 3 or more and less than 10 is denoted as B)
